Holding throughout (type): cell-based
In assay [1] the test system is miR-143 and miR-145 expression in HPNE-Kras^G12D cells. As to the kind of experiment: miR-143 and miR-145 expression by northern blot and qRT-PCR in HPNE-Kras^G12D cells. The conditions noted are these: HPNE-Kras^G12D cells treated with inhibitor. The text has this: (§1) Vista was used to generate pairwise alignments between the genomic sequence from human (May 2004 assembly) and the indicated species. The graph is a plot of nucleotide identity for a 100-bp sliding window centered at a given position. […] Expression of RNA transcripts was normalized to β-actin. FIG. 3C is a graph showing the results of a quantitative RT-PCR analysis of miR-143 and miR-145 expression in the cell lines described above. miRNA expression was normalized to 18S RNA. Error bars represent standard deviations.
(§2) U6 served as a loading control. […] Error bars represent standard deviations.
(§3) HPNE-Kras^G12D cells were infected with the anti-RREB-1 lentivirus-shRNA construct and selected in neomycin.
(§4) Kras activity leads to activation of both the Map Kinase (MAPK) cascade (also known as the RAF/MEK/MAPK pathway) and the phosphatidylinositol-3 kinase (PI3K) pathway. In order to determine which of these downstream effector pathways is involved in the Kras-RREB1-miR-143/145 pathway, levels of miR-143 and miR-145 were examined in HPNE-Kras^G12D cells treated with specific inhibitors that target MAPK and PI3K.
For orientation: Real-time PCR tracks product formation cycle by cycle.

Assay [2] has as its system miR-143/145 primary transcript in HPNE-Kras^G12D cells. Description: quantitative RT-PCR of miR-143/145 primary transcript in HPNE-Kras^G12D cells. The conditions noted are these: HPNE-Kras^G12D cells treated with inhibitor; qRT-PCR.
Source text: as §1, §2, §3, §4

Assay [3] concerns RREB-1 expression in HPNE-Kras^G12D cells. As to the kind of experiment: qPCR of RREB-1 expression in HPNE-Kras^G12D cells. The following applies: HPNE-Kras^G12D cells treated with inhibitor.
Source text: as §1, §2, §3, §4

Regarding `O=c1cc(N2CCOCC2)oc2c(-c3ccccc3)cccc12` [LY294002], the “miR-143 and miR-145 expression” value in assay [1] is reported as “no effect”.
With `N#CC(=C(/N)Sc1ccccc1N)/C(C#N)=C(\N)Sc1ccccc1N` [U0126, 1,4-diamino-2,3-dicyano-1,4-bis(2-aminophenylthio)butadiene], in assay [1], the “miR-143 and miR-145 expression” value is on record as “significant increase”. The “level of the miR-143/145 primary transcript” value in assay [2] was “increased”. Further, the RREB-1 expression result in assay [3] is “decreased”.

The values are drawn from patent US20110009469A1, “COMPOSITIONS AND METHODS OF TREATING NEOPLASIA” (The Johns Hopkins University, priority 2007, published 2011).
